Experimental data taken from US12589088B2, “Compositions and methods for treating cancer with andrographolide and melatonin combination therapy” (University of Maryland, Baltimore, priority 2020, dated 2026).
Like-named read-outs stand apart in the source and are kept apart here.

Tests used:
HCT-15 = conditions: HCT-15, previous studies (Lim et al. 2007); read-out: IC50 dose of 5-FU; cited from earlier work
[1] = cited from earlier work
HT-29 = conditions: HT-29, previous studies (Lim et al. 2007); read-out: IC50 dose of 5-FU; cited from earlier work
[2] = tested on: VEGF165, VEGF189, VEGF receptor1, VEGF Receptor2, FoxM1, PTTG1 mRNA; assay: qRT-PCR of angiogenic signaling molecules in HT-29 and HCT-15 cells; assay type: cell-based, human
Method: (§1) FIG. 6. AGP and MLT synergistically downregulates angiogenic signaling molecules in colon cancer cells. HT-29 (left) and HCT-15 (right) cells were analyzed for A. VEGF165, B. VEGF189, C. VEGF receptor1, D. FoxM1, E. PTTG1 mRNA expression in the presence and absence of AGP, MLT and 5-FU. F. HT-29 and HCT-15 cell lysates were subjected for protein expression as indicated. (G-H). Quantification of FoxM1 was normalized with GAPDH and (I-J). p-VEGF receptor1 was normalized with total VEGF receptor 1. Statistical significance was determined using one-way ANOVA followed Bonferroni test (*P<0.05, **P<0.01, ***P<0.001).
(§2) Gene expression was evaluated as previously described (Banerjee et al., Oncotarget, (2016), 7(27):41432-41444). Primer sequences are listed in Supplementary Table 1. Relative gene expression changes were calculated using the 2^−ΔΔCT method, and expression normalization was accomplished using the housekeeping gene, GAPDH.

[3] = tested on: IRE-1, ATF6, phospho-PERK protein; assay: Immunoblotting of ER stress markers in HT-29 and HCT-15 cell lysates; assay type: cell-based, human; conditions: 5-FU treatment group; except IRE-1 protein level in HT-29
Method: (§3) FIG. 5. AGP and MLT synergistically induce ER stress-related molecules. HT-29 and HCT-15 cells were treated with AGP, MLT, AGP+MLT, and 5-FU for 48 h as indicated in the methodology section. Transcriptional level of expression of ER stress associated genes was determined by qRT-PCR for A. IRE-1, B. ATF6, and C. CHOP. Bar graphs show quantitative results normalized to GAPDH mRNA levels. Results are from three independent experiments. D. Treated and untreated cells were lysed, and protein expression was determined by immunoblotting for IRE-1, ATF6, phospho-PERK, and GAPDH.
(§4) Immunoblotting was performed as previously described (Banerjee, Basu, et al. 2016). The primary antibodies used were against ATF6 (#MA5-16172; Thermo Fisher Scientific) phospho-PERK (Thr 981) (#sc-32577; Santa Cruz biotechnology), IRE-1 (#3294S; Cell Signaling), phospho-VEGFReceptor1/Flt-1 (Y1213) (#AF4170; R&D systems,), total VEGFReceptor1 (R&D systems, #AF321), FoxM1 (R&D systems, #AF3975), and GAPDH (#G8795; Sigma Aldrich). Blots were incubated with HRP-conjugated secondary antibodies followed by enhanced chemiluminescence (ECL) detection. Images were captured using a Syngene G Box digital imager (Frederick, Md.) and results were quantified with densitometry as previously described (Blanchard et al. 2018).

[4] = tested on: FoxM1 and phospho-VEGF receptor1 protein; assay: Immunoblotting of angiogenic markers in HT-29 and HCT-15 cell lysates; assay type: cell-based, human; conditions: vs untreated and single compound groups
Method: as §1, §4

IRE-1, ATF6, CHOP mRNA = assay: qRT-PCR of ER stress associated genes in HT-29 and HCT-15 cells; assay type: cell-based, human; conditions: 5-FU at IC50 dose; for CHOP mRNA expression: AGP 9.3 μM, MLT 0.18 mM alone or combined, 48 h, both cell lines
Method: as §3, §2

HT-29 cells = assay: MTT cell viability assay with CompuSyn / Chou-Talalay combination index analysis; assay type: cell-based, human; conditions: for IC50: Homo sapiens, HT-29, 48 h, median-effect plot, combination = total dose at 1:20, read-out: Dm values for HT-29
Method: (§5) Cell cytotoxicity in the presence or absence of AGP and MLT was assessed using the MTT (Sigma Aldrich) assay as previously described (Banerjee et al., Helicobacter, (2016), 21(5):395-404). Cells (1×10^4) were plated in phenol-free complete RPMI media and incubated at 37° C. under 5% CO2 for 24 h. Cells were then simultaneously treated in quadruplicate wells with AGP (0-150 μM), MLT (0-3000 μM) or vehicle controls (0.1% DMSO). The media was replaced with MTT solution for each plate at its respective timepoint (either 24, 48, 72 h) followed by the addition of DMSO to dissolve the formazan crystals. Absorbance at 570 nm was determined using a microplate reader (Model 550, Bio-Rad, USA). The percent cell viability relative to the vehicle control was calculated using the following equation:
(§6) [formula] The IC50 value and slope (m) of the concentration-response curves were calculated using the CompuSyn software developed by Chou and Martin (Tun et al., Mar Drugs, (2019), 17(9): 10.3390/md17090536). Colospheroid Formation Assay
(§7) To determine an upper bound on both the individual doses drugs, we measured maximum cell death (near 0% cell viability). AGP achieved this level at 150 μM and MLT at 3 mM for 48 h (Banerjee et al., Helicobacter, (2016), 21(5):395-404, Reiter et al., Int J Mol Sci, (2017), 18(4), doi: 10.3390/ijms18040843). […] Serial dilution was conducted up to 6 times to anchor the observed cell deaths along the dose range.
(§8) To understand the Combination Index (CI), we first defined the fraction affected (Fa) and its counterpart, fraction unaffected (Fu). In our case, the percentage of viable cells determines the […], and 100—percentage of viable cells determines the Fu. The dose effect curve provides an overview of Fa vs. Dose (FIG. 2A and FIG. 2B). As expected, the individual AGP and MLT dose effect curves cradle the combinational dose effect curve below and above, respectively. This means that the total combinational dose to achieve the same Fa is greater than AGP's dose and less than MLT's dose. However, due to the 1:20 combinational ratio, we require less AGP and MLT absolutely.
(§9) [formula] The ratio between Fa and Fu aids in understanding when a given dose achieves the IC50 value. At 50% cell viability,
(§10) [formula] To linearly scale the datapoints, we also took the log of Dose. In this manner, the x intercept of the Median-Effect plot—also known as Dm—precisely determines the dose required to achieve the IC50 value. Immunoblotting

HCT-15 cells = assay: as above; assay type: cell-based, human; conditions: for IC50: Homo sapiens, HCT-15, 48 h, median-effect plot, combination = total dose at 1:20, read-out: Dm values for HCT-15
Method: as §5, §6, §7, §8, §9, §10

HT-29 and HCT-15 cells = assay: MTT cell viability assay, one value given for both cell lines; assay type: cell-based, human; conditions: for IC50: Homo sapiens
Method: as §5, §6, §7, §8, §9, §10

T84 and Colo 205 = conditions: cited from earlier work
Cyclin B1, Prx, Trx = conditions: T84 and Colo 205 cell lysates, earlier publication; cited from earlier work
[5] = target: Ki-67 in patient derived organoids (PDOD); assay: Ki-67 immunofluorescence in patient derived organoids; assay type: cell-based, human; conditions: AGP 15 μM, MLT 0.5 mM or both, 48 h; vs untreated
Method: Organoid cells were generated from stage 3 metastatic cancer tissue and cultured as previously described (Blanchard et al., Cell Physiol Biochem, (2018), 48(3):1259-1273; Banerjee et al., Gastroenterology and Hepatology International Journal, (2017), 2(2):1-2; Blanchard et al., Cancers (Basel), (2019), 11(2)). The cultures were passaged when the aggregates reached a diameter of approximately 800 μm. Organoids were treated with 15 μM AGP, 0.5 mM MLT, or both for 48 h. Treated and untreated organoids were subjected to morphological analysis and immunofluorescence for Ki67 expression.
Patient derived organoids were grown in 1:1 mixture of Matrigel and advanced DMEM:F12 (Life Technologies) supplemented with 1× penicillin/streptomycin, lx glutamine, 1×N2, 1×B27, 1 mM N-acetyl-L-cysteine, 20 ng/ml fibroblast growth factor and 50 ng/ml epidermal growth factor at 37° C. on a 4-chambered glass slide. […]
Fluorescence microscopy and colony counting were performed using an inverted fluorescence microscope (Olympus IX-71, Pennsylvania, USA). […] Fluorescence intensity was quantified using ImageJ software version 1.39 (NIH). RGB composite images from control and treated groups were created using Axion Vision rel, 4.6 and analyzed. […]

CRC = conditions: previous studies; read-out: IC50 value of MLT for CRC; cited from earlier work

O=c1[nH]cc(F)c(=O)[nH]1 [5-FU, 5-Fluorouracil]
IC50 (HCT-15): ~5 µM
overall response rate to 5-FU in adjuvant treatment ([1]; adjuvant treatment): less than 15%
overall response of 5-FU in advanced CRC ([1]; advanced CRC): about 10%
IC50 (HT-29): 13 µM
FoxM1 mRNA level [2]: no more significant reduction
PTTG1 mRNA level [2]: no more significant reduction
mVEGF165 level ([2]; both cell lines, vs untreated): increased
mVEGF189 level ([2]; both cell lines, vs untreated): increased
ER stress marker protein expression [3]: No significant changes
FoxM1 protein [4]: No further reduction
phospho-VEGF receptor1 protein [4]: No further reduction
ATF6 mRNA expression (IRE-1, ATF6, CHOP mRNA; HCT-15): induced significant
IRE-1 mRNA expression (IRE-1, ATF6, CHOP mRNA; HT-29 and HCT-15): induced significant
CHOP mRNA expression (IRE-1, ATF6, CHOP mRNA): attenuated

C=C1CC[C@@H]2[C@](C)(CO)[C@H](O)CC[C@@]2(C)[C@@H]1C/C=C1/C(=O)OC[C@H]1O [AGP, andrographolide]
potency of AGP relative to MLT (HT-29 cells; HT-29, dose-effect curve): 40 fold
IC50 (HT-29 cells): 25.6 µM
potency of AGP relative to MLT (HCT-15 cells; HCT-15, dose-effect curve): 26 fold
IC50 (HCT-15 cells): 26.5 µM
dose achieving maximum cell death (near 0% cell viability) (HT-29 and HCT-15 cells; 48 h): 150 µM
IC50 (HT-29 and HCT-15 cells; 24 h (stated consistent with 48 h), read-out: IC50 value of AGP): 30 µM
IC50 (HT-29 and HCT-15 cells; AGP single dose, 48 h, read-out: IC50 values): 30 µM
potency of AGP relative to MLT (basis of 1:20 ratio) (HT-29 and HCT-15 cells; from maximum cell death doses): 20 times
IC50 (T84 and Colo 205; 48 h, published results, read-out: IC50 value for AGP as a single therapy): 45 µM
IC50 (T84 and Colo 205; T84 and Colo 205, previous study, read-out: IC50 value of AGP): 45 µM
CHOP mRNA expression (IRE-1, ATF6, CHOP mRNA): Significant CHOP mRNA expression
Cyclin B1 expression, AGP alone (Cyclin B1, Prx, Trx): suppresses
Ki-67 expression [5]: greatly reduced

COc1ccc2[nH]cc(CCNC(C)=O)c2c1 [MLT, melatonin]
IC50 (HT-29 cells): 1000 µM
IC50 (HCT-15 cells): 683 µM
IC50 (CRC): 1000 to 2500 µM
cell number at 24 h (HT-29 and HCT-15 cells; 24 h): transient increase in the cell number
dose achieving maximum cell death (near 0% cell viability) (HT-29 and HCT-15 cells; 48 h): 3000 µM
IC50 (HT-29 and HCT-15 cells; MLT single dose, 48 h, read-out: IC50 values): 1000 µM
Ki-67 expression [5]: greatly reduced
